Assay results published in publication doi:10.1101/2019.12.19.881847v1 (biorxiv, 2019).
Read-outs that look alike come from different tables or passages of the source.

What was measured:
VqmA [1] = target: T1, VqmA (Vibrio cholerae, UniProt A0A0F0AZW0); assay: biochemical
Target sequence in this assay (A0A0F0AZW0 1-246): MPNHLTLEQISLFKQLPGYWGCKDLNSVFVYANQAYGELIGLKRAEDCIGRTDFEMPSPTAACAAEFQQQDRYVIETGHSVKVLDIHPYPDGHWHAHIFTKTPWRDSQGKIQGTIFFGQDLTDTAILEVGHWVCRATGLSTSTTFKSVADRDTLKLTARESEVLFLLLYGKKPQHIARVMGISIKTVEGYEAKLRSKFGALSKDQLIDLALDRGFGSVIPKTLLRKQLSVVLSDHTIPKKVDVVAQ

VqmA [2] = target: T1, VqmA; assay: biochemical; remark: listed apart in the source
Target sequence in this assay (A0A0F0AZW0 1-246 limits assumed): as the sequence (A0A0F0AZW0 1-246) above

Row | SMILES | Kd (VqmA [1]) [µM] | Kd (VqmA [2]) [µM]
1 | Cc1cnc(O)cn1 [compound 5, 5] | 6 ± 1 | –
2 | C[C@H]1NC(C)(C)CNC1=O [compound 1, (R)-3,5,5-trimethylpiperazin-2-one] | – | 10.3 ± 3.1
3 | CC1NC(C)(C)CNC1=O (stereo not drawn) [compound 2, 3,5,5-trimethylpiperazin-2-one] | – | 7 ± 3.1
